Legend:
Format in all cases: in vivo
[1] = test system: tomato plant (c.v. Money maker); test: Foliar application on tomato plants; details: 5 μM foliar application
Procedure: Tomato seeds (c.v. Money maker) were sterilized and pre-germinated on moistened filter paper at 22° C. for 4-5 days, transferred to light for 3-4 days or direct sowed of seeds from fresh tomatoes in soils at 25° C. Most uniform seedlings (10 days old) were selected and transferred to pots. After one week of the transfer, 5 μM compounds were used for foliar application. Each compound was applied three times in a week up to four weeks: 20 mL per pot (spray as runoff) in first 3 weeks, and 40 mL per pot in last 4th week. The plants were grown under normal growth condition (27° C., 70% RH).

wild-type rice plants = test: Rice phenotypes in soil (rhizotron system); details: 5 μM
Procedure: For testing MZ3 and MZ5 on rice phenotypes in the rhizotron system (48 cm×24 cm×5 cm), three-day-old seedlings were grown in soil with half-strength modified Hoagland nutrient solution containing 0.4 mM K2HPO4.2H2O (+Pi) and 5 μM zaxinone for two weeks. The solution was changed every other day, adding the chemical at each renewal. To increase the compounds stability, 1 μl/ml emulsifier (cyclohexanone+Atlas […] kindly provided by a person […] of CRODA, Gouda; The Netherlands) was added into Hoagland nutrient solution. Root surface area was analyzed with the ImageJ software.

Striga hermonthica seeds = test: Striga hermonthica seed germination bioassay with root exudates of treated rice seedlings
Procedure: For SL analysis, one-week-old seedlings were transferred into 50 ml falcon tubes (two seedlings per tube), containing half-strength Hoagland nutrient solution with K2HPO4.2H2O (+Pi), and grown in the biochamber for one week. Rice seedlings were then subjected to phosphate deficiency (−Pi) for another one week. On the day of root exudates collection, rice seedlings were first treated with 5 μM Zaxinone, or MZ compounds for 6 h, and then root exudates and root tissues were collected from each tube for LC-MS/MS analysis and Striga bioassays. Striga hermonthica seed germination bioassays were conducted by following the procedure as described previously. About 50-100 sterilized Striga seeds were spread on a glass fiber filter paper disc. Then 12 discs with Striga seeds were put on a sterilized filter paper, moistened with 3 ml sterilized water in a 90 mm petri plate. The plates were sealed with parafilm and cover with aluminum foil. All the plates were kept at 30° C. for 10 days for pre-conditioning. On 11th day, six dry discs with pre-conditioned seeds were selected and put in a 90 mm petri-dish. A filter paper ring moistened with 0.9 ml sterile MilliQ water was placed in the plate. The root exudates collected from Zaxinone or MZ compounds treated rice seedlings was applied at 50 μl on each six disc. Sterile MilliQ water and standard SL analog GR24 (2.5 μM) were included as a negative and positive control, respectively. After application, Striga seeds were incubated in dark at 30° C. for 24 hours. Germination (seeds with radicle emerging through seed coat) was scored under a binocular microscope, and germination rate (%) was calculated.

[2] = test system: zas mutant and Nipponbare wild-type rice seedlings; test: Hydroponic rice growth, zas mutant rescue and tillering; details: hydroponic system, 2.5 μM
Procedure: For rescuing zas mutant phenotypes and investigating the effect of the compounds MZ3 and MZ5 on different genotypes, one week-old seedlings were grown hydroponically in half-strength modified Hoagland nutrient solution containing K2HPO4.2H2O (+Pi), 2.5 μM and 5 μM zaxinone or compounds (MZ2-MZ5) (dissolved in 0.1% acetone) or the corresponding volume of the solvent (control) for 21 days (i.e. 3 weeks). The solution was changed every other day, adding the chemical at each renewal.

[3] = LC-MS analysis of rice plants fed with the mimics; details: data not shown
[4] = test system: Gigaspora margarita spores; test: Gigaspora margarita spores germination; details: 5 μM and 50 nM, 3 and 7 days
Procedure: Spores were sterilized in a solution of Streptomycine sulphate (0.03% W/V) and Chloramine T (3% W/V) and germinated in 200 μl of MZ3 and MZ5 at 5 μM or 50 nM, GR24 10 nM or a solution of Water/Acetone (12.5 μl acetone in 25 ml water). For each treatments 96 sterilized spores were placed individually in the wells of a multi-well plate and treated with freshly prepared solutions at the beginning of the experiment and after 3 days. Spores were germinated in the dark at 30° C. and the germination rate was evaluated after 3 days and 7 days.

[5] = test system: strigolactones (4-deoxyorobanchol, orobanchol) release; test: LC-MS/MS quantification of SLs in rice root exudates; details: 5 μM
Procedure: For SL analysis, one-week-old seedlings were transferred into 50 ml falcon tubes (two seedlings per tube), containing half-strength Hoagland nutrient solution with K2HPO4.2H2O (+Pi), and grown in the biochamber for one week. Rice seedlings were then subjected to phosphate deficiency (−Pi) for another one week. On the day of root exudates collection, rice seedlings were first treated with 5 μM Zaxinone, or MZ compounds for 6 h, and then root exudates and root tissues were collected from each tube for LC-MS/MS analysis and Striga bioassays.
For the quantification of SLs in rice root exudates, 50 ml of root exudates spiked with 0.672 ng of D6-5-deoxystrigol, was brought on a 500 mg/3 ml fast SPE C18 column preconditioned with 6 ml of methanol and 3 ml of water. After washing with 3 ml of water, SLs were eluted with 5 ml of acetone. The 4-deoxyorobanchol fraction (acetone-water solution) was concentrated to SL aqueous solution (˜500 μl), followed by the extraction with 1 ml of ethyl acetate. 750 μl of SLs enriched organic phase was then transferred to 1.5 ml tube and evaporated to dryness under vacuum. The dried extract was dissolved in 100 μl of acetonitrile:water (25:75, v:v) and filtered through a 0.22 µm filter for LC-MS/MS analysis.

## COc1ccc(Oc2cccc(/C=C/C(C)=O)c2)cc1 [MZ3, (E)-4-(3-(4-methoxyphenoxy)phenyl)but-3-en-2-one]
[1]
  plant height, branch, flowers and fruit numbers compared to zaxinone: strongly increased
wild-type rice plants
  root surface area and root numbers of WT plants compared with zaxinone treatment: increased more
Striga hermonthica seeds; exudates of Pi-starved WT rice seedlings exposed to 5 μM for 6 hours (FIG. 10)
  lowering of Striga seed germinating activity of collected exudates: around 40%
Striga hermonthica seeds; exudates of rice seedlings treated with 5 μM compound, Pi starvation (FIG. 2)
  decrease of Striga seed germination rate: ~45%
[2]
  root length of wild-type plants relative to zaxinone: more active than zaxinone
[3]
  presence in shoots of rice plants fed through roots: detected
[4]
  spore germination rate: no effect
[5]; Pi-starved WT rice, 6 hours, control 20
  Oro content in root exudates: 5 pgmg-1dry-root-weight
[5]; Pi-starved WT rice, 6 hours, control 25
  4DO content in root exudates: 10 pgmg-1dry-root-weight
[5]; roots and root exudates, Pi-starved WT rice, 6 hours
  effect on 4-deoxyorobanchol relative to Zaxinone: significantly stronger
[5]; wild-type rice seedlings, Pi-starvation, 6 h, compared with Zaxinone (FIGS. 19, 20A-20B)
  SL level of the root exudate: obvious effect
[5]; zas mutant rice roots and root exudates, Pi starvation (FIGS. 11A-11B)
  SL content in zas mutant (high SL phenotype): strongly inhibited
